Data taken from patent US11129807B2, “Methods of treating schizophrenia” (Sunovion Pharmaceuticals Inc., priority 2017, dated 2021).

Tests used:
[1] = system: PCP-Induced Hyperactivity Responses in Mice; assay: PCP-induced hyperactivity (open field) in mice;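 also: plus means significant inhibition of PCP hyperactivity at P below 0.05 and minus means none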; format: in vivo; settings: male C57Bl/6J mice, vs. vehicle + PCP
Method: (§1) Anti-psychotic like activity of the compounds was evaluated in mice using the PCP hyperactivity and Pre-Pulse Inhibition (PPI) models of schizophrenia.
(§2) Methods: Animals: Male C57Bl/6J mice from Jackson Laboratories (Bar Harbor, Me.) were used. Upon receipt, mice were assigned unique identification numbers (tail marked) and were group housed with 4 mice per cage in OptiMICE ventilated cages. All animals remained housed in groups of four during the remainder of the study. All mice were acclimated to the colony room for at least two weeks prior to testing. During the period of acclimation, mice were examined on a regular basis, handled, and weighed to assure adequate health and suitability. Animals were maintained on a 12/12 light/dark cycle. The room temperature was maintained between 20 and 23° C. with a relative humidity maintained between 30% and 70%. Chow and water were provided ad libitum for the duration of the study. In each test, animals were randomly assigned across treatment groups.
The analysis was configured to divide the open field into a center and periphery zone. Distance traveled was measured from horizontal beam breaks as the mouse moved whereas rearing activity was measured from vertical beam breaks.
Mice were injected with vehicle, test compound, or clozapine (1 mg/kg; i.p) and placed in the OF chambers for 30 min measurement of baseline activity. Mice were then injected with either water or PCP (5 mg/kg; i.p) and placed back in the OF chambers for a 60-minute session. At the end of each OF test session the OF chambers were thoroughly cleaned.

[2] = system: Pre-pulse Inhibition (PPI) in Mice; assay: Pre-pulse inhibition (PPI) of startle in mice;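 also: plus grades count prepulse intensities with significant PPI increase at P below 0.05 and minus means no change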; format: in vivo; settings: 30 min prior to PPI test, male C57Bl/6J mice, vs. vehicle
Method: as §1, §2
Prepulse Inhibition of Startle: The acoustic startle is an unconditioned reflex response to an external auditory stimulus. Prepulse inhibition of startle (PPI) refers to the reduction in the startle response caused by the presentation of a low-intensity auditory stimulus prior to the startle stimulus. The PPI paradigm is used for the study of schizophrenia and antipsychotic action due to the similarities between the results from human and rodent studies. […] Various psychotomimetic drugs such as PCP can disrupt PPI. In mice, antipsychotic drugs such as clozapine can reverse the disruption of PPI induced by PCP.
Mice were placed in the PPI chambers (Med Associates) for a 5 min session of white noise (70 dB) habituation. After the habituation period the test session was initiated. The session started with a habituation block of 6 presentations of the startle stimulus alone, followed by 10 PPI blocks, each of which consisted of 6 different types of trials. Trial types were: ‘null’ (no stimuli), ‘startle’ (120 dB), ‘startle plus prepulse’ (4, 8 and 12 dB over background noise, i.e., 74, 78 or 82 dB) and ‘prepulse’ (82 dB). Trial types were presented in a random order within each block. Each trial started with a 50 ms stimulus-free period during which baseline movements were recorded. This was followed by a subsequent 20 ms period during which the prepulse stimulus was presented and responses to the prepulse measured. After a further 100 ms period, the startle stimulus was presented for 40 ms and responses recorded for 100 ms from startle onset. Responses were sampled every ms. The inter-trial interval was variable with an average of 15 s (range from 10 to 20 s). In ‘startle’ trials the basic auditory startle response was measured. The basic startle response was calculated as the mean startle response of all ‘startle’ trials (i.e., excluding the first habituation block). In ‘startle plus prepulse’ trials the degree of inhibition of the normal startle was calculated and expressed as a percentage of the basic startle response.
Mice were treated with vehicle, haloperidol (1 mg/kg; i.p) or test compound 30 min prior to PPI test. The PPI enclosures were cleaned following each test.

[3] = 0.3 mg/kg Compound + PCP (5 mg/kg; i.p)
[4] = 1 mg/kg Compound + PCP (5 mg/kg; i.p)
[5] = 3 mg/kg Compound + PCP (5 mg/kg; i.p)
[6] = 10 mg/kg Compound + PCP (5 mg/kg; i.p)
[7] = 30 mg/kg Compound + PCP (5 mg/kg; i.p)
[8] = 100 mg/kg Compound + PCP (5 mg/kg; i.p)

Structure (SMILES) | Total Distance Traveled (cm) [1, 3] | Total Distance Traveled (cm) [1, 4] | Total Distance Traveled (cm) [1, 5] | Total Distance Traveled (cm) [1, 6] | Total Distance Traveled (cm) [1, 7] | Effect on Pre-pulse Inhibition (PPI) ([2]; 3 mg/kg) | Effect on Pre-pulse Inhibition (PPI) ([2]; 10 mg/kg) | Effect on Pre-pulse Inhibition (PPI) ([2]; 30 mg/kg) | Total Distance Traveled (cm) [1, 8] | Effect on Pre-pulse Inhibition (PPI) ([2]; 100 mg/kg)
NC[C@@H]1OCCc2ccsc21 [Compound 127] | − | − | + | + | − | +++ | − | +++ |  | 
c1cc2c(s1)[C@@H]([C@H]1CCCN1)OCC2 [Compound 205] | + | + | + | + | + | − | − | +++ |  | 
NC[C@H]1OCCc2sccc21 [Compound 3] |  |  |  | − | − |  | +++ | +++ | − | −
Cc1csc2c1CCO[C@@H]2CN [Compound 170] | − | − | − | − | − | − | +++ | +++ |  | 
CCNC[C@H]1OCCc2ccsc21 [Compound 242] | − | + | + | + | + | − | − | − |  | 
CNC[C@@H]1OCCc2scc(C)c21 [Compound 130] | − | − | + | + | + | − | − | − | + | 
CNCC1OCCc2c(C)csc21 (stereo not drawn) [Compound 140] |  |  |  | − | − |  | − | − | + | −
CNCC1OCCc2scc(C)c21 (stereo not drawn) [Compound 78] |  |  |  | + | + |  | − | − | + | −
CNC[C@@H]1OCCc2sc(C)cc21 [Compound 57] |  |  |  | + | + |  | − | − | + | ++
CNC[C@@H]1OCCc2sccc21 [Compound 27] | − | − | − | + | + |  | − | − | + | −
NCC1OCCc2sccc21 (stereo not drawn) [Compound 1] |  |  |  | + | + |  | − | +++ | − | +++
c1cc2c(s1)CCO[C@@H]2[C@@H]1CCCN1 [Compound 119] |  |  |  | + | + |  |  |  | + | 
CNCC1OCCc2sc(C)cc21 (stereo not drawn) [Compound 5] |  |  |  | + | + |  | − | +++ | + | +++
CCNC[C@H]1OCCc2sccc21 [Compound 311] | − | + | + | + | + | − | − | +++ |  | 
CCNC[C@@H]1OCCc2sccc21 [Compound 310] | + | − | − | + | + | − | − | +++ |  | 
CNC[C@@H]1OCCc2c(C)csc21 [Compound 171] | − | − | − | − | + | − | − | − |  | +++
NC[C@@H]1OCCc2sccc21 [Compound 2] |  |  |  | + | + |  | − | − | − | +++
CNC[C@H]1OCCc2sccc21 [Compound 28] | + | + | + | + | + |  | − | +++ | + | +++
CCc1cc2c(s1)CCO[C@@H]2CNC [Compound 76] |  |  |  | − | − |  | − | − | + | −
CCc1cc2c(s1)CCOC2CNC (stereo not drawn) [Compound 10] |  |  |  | + | + |  | +++ | +++ | + | +++
CNC[C@H]1OCCc2sc(C)cc21 [Compound 58] |  |  |  | + | + |  | +++ | + | + | +++
CCc1cc2c(s1)CCO[C@H]2CNC [Compound 75] |  |  |  | + | − |  | − | − | + | −
CCNCC1OCCc2sccc21 (stereo not drawn) [Compound 13] |  |  |  |  |  |  | − | − |  | +++
